The values that follow come from article PMC12388125, “Design, Synthesis, and Pharmacological Activity of the N-(4-(1H-1,2,4-Triazol-1-yl)phenyl)-substituted-amide Derivatives” (Molecules, 2025).

“Also recorded” adds a separate entry of the source. Like-named read-outs stand apart in the source and are kept apart here. Bounds are passed on as bounds.

The test system of series [1] is pentylenetetrazole-induced clonic seizures. Put plainly: animal or person. It is filed as in vivo, Kunming mice. The note with it: for minimal effective dose: doses 30, 100, 300 mg/kg, read-out: scPTZ, dose at which at least one of three animals was protected. Here is the method: (§1) Pharmacological tests were performed using two experimental animal models, MES and scPTZ, which were divided into three dosage groups of 30, 100, and 300 mg/kg, and the anticonvulsant activity of the target compounds 6a–m and 9a–g, after 0.5 and 4 h of administration, respectively, were tested. Carbamazepine, which is effective in the MES model, was chosen as a positive control, and ethosuximide, which is effective in the scPTZ model, was chosen as a positive control. […]
The test compound wa s
Absence of clonic spasms indicated a […]

The subject of series [2] is GABA content in brain tissue. Put plainly: GABA estimation in brain tissue. It is filed as in vivo, Wistar rats. The note with it: 30 mg/kg, n = 5.
Description: The data obtained from the experiments were analyzed and processed and plotted using GraphPad Prism 8 software.
We i g h about 0.05 g of tissue sample in a homogenizer, add 450 µL of extracting solution
to homogenize, homogenize, transfer to an EP tube, mark the liquid level scale, and heat for 2
hours at 95°C. After heating, centrifuge at 8000 × g for 10 min and remove the supernatant for
① Standard tube: Ta k e 30 µL of different concentrations of standards and add them to
the corresponding 1.5 mL EP tube. Measurement tube: Ta k e 30 µL of sample supernatant and
add it to 1.5 mL EP tube. ② Add 50 µL of buffer solution and 40 µL of Chromogenic Agent A
to each tube in step, mix we l l , and let stand at room temperature for 5 min. ③ Add 60 µL of
Chromogenic Agent B to each tube in step, mix we l l , and heat at 95°C for 10 min, then cool at
ice bath. ④ Add 200 µL of supplementary solution to each tube in step and mix well. ⑤ Ta k e
200 µL into the corresponding we l l s of the enzyme plate, and measure the OD va l u e of each
For series [3], the system named is mice. Put plainly: Rotarod (ROT) neurotoxicity test. The note with it: for NT (neurotoxicity, ROT), dose at which at least one of three animals showed neurotoxicity: doses 100, 300 mg/kg. (In general: In the rotarod test animals must keep their balance on a rotating rod.)
Description: (§2) The neurotoxicity of the target compounds was tested using the ROT experimental model, which was divided into two dose groups, 100 and 300 mg/kg, and tested after 0.5 and 4 h of administration, respectively.
(§3) The neurotoxicity of the target compounds was determined using the ROT experimental model.
(§4) The neurotoxicity of the compounds wa s measured in mice using the rotarod test. Mice
(§5) we r e trained to stay on an accelerating rotarod (diameter, 3.2 cm) rotating at 10 rpm. Trained
(§6) animals we r e injected with the test compounds (i.p.) and neurotoxicity wa s measured as the
(§7) inability of the animal to maintain equilibrium on the rod for at least 1 min in each of the
Series [4] can be described thus: Rotarod (ROT) neurotoxicity test. The note with it: Kunming, mouse, in vivo, intraperitoneal.
Description: as §2, §3, §4, §5, §6, §7
Series [5] has as its system mice. In words: Elevated plus maze (EPM) test. It is filed as in vivo. The note with it: n = 6. An excerpt:
The EPM experiment is a method for evaluating whether experimental animals have an anxiety response. The principle is that, in the face of new things, mice will generate curiosity to explore (open arm), while they have a nature of darkness (closed arm), the conflict behavior between the two occurs between exploration and avoidance, resulting in anxiety. Anxious behavior can be evaluated by comparing the retention time of mice in the open and closed arms.
Flumazenil is a selective BZ antagonist with a chemical structure similar to that of BZs, which acts on central benzodiazepine (BZ) receptors and thus blocks the receptors without producing BZ-like effects.
The apparatus consisted of a black acrylic maze with two opposite open arms (50×10 cm) and two opposite closed arms (50×10×40 cm) disposed like a plus sign with a central square of 10 cm2. Entire maze wa s elevated 50 cm above the floor. The test consisted in placing the rat in the central square of the maze facing one closed arm and allowing it to explore during 5 min. This procedure wa s performed in a quiet and dimly illuminated room. The scores analysed we r e the time spent in open and closed arms, and the number of entries to both […]
widely used as an anxiety index (time spent in open arms relative to the time spent in open […]
and closed arms). […]

The subject of a further series is MES-induced seizures. Put plainly: animal or person. Format: in vivo, Kunming mice. The note with it: for minimal effective dose: ip, doses 30, 100, 300 mg/kg, read-out: MES, dose at which at least one of three animals was protected. Here is the method:
as §1
Protection against the spread of
extension component of the seizure. […]

For the compound `O=C(Nc1ccc(-n2cncn2)cc1)c1cccc(F)c1` [Compound 6f, N-(4-(1H-1,2,4-triazol-1-yl)phenyl)-3-fluorobenzamide], the ED50 (scPTZ) in series [1] (0.5 h, value (95% CI)) came out at 19.7 mg/kg. Further, the “PI (TD50/ED50) scPTZ” value in series [1] (Kunming, mouse, in vivo, 0.5 h) was found to be 24.2. Besides, the ED50 (in general, the dose that gives a 50% effect, or the effect in half of the subjects) in series [1] (Mus musculus, sc, 0.5 h, as given in the text, read-out: ED50 (scPTZ)) was determined as 19.7 mg/kg; in the series with MES-induced seizures (Mus musculus, 0.5 h, as given in the text), 13.1 mg/kg. The minimal effective dose in series [1] (Mus musculus, sc, 0.5 h after administration) was found to be 30 mg/kg; in series [1] (Mus musculus, sc, 4 h after administration) it was 30 mg/kg; with MES-induced seizures (Mus musculus, 0.5 h after administration), 30 mg/kg; in the series with MES-induced seizures (Mus musculus, 4 h after administration) it was 30 mg/kg. The “GABA content in brain tissue vs control” value in series [2] (2 h after administration) is “do not show significant differences”; in series [2] (7 d continuous administration) it was “showed significant differences”. Besides, the “TD50 (ROT)” value in the series with mice [3] (0.5 h, value (95% CI)) is reported as 476.7 (518.3–438.5) mg. Moreover, the “NT (neurotoxicity, ROT), dose at which at least one of three animals showed neurotoxicity” value in the series with mice [3] (0.5 h after administration) and in the series with mice [3] (4 h after administration) was above 300 mg/kg in each case. Moreover, the TD50 (as a rule, the dose at which the toxic effect under study appears in half of the subjects) at 0.5 h in series [4] was 477 mg/kg. Besides, the “EPM % of time in open arms vs control” value is listed as “showed a significant difference; also recorded: showed significant differences” in the series with mice [5] (3 mg/kg) and “also showed significant differences” in the series on mice [5] (6f 3 mg/kg + FMZ 5 mg/kg). In addition, the “EPM time in open arm vs 6f group” value in the series with mice [5] (6f 3 mg/kg + FMZ 5 mg/kg) was “significantly shortened the time of experimental animals in open arm”. In the series with MES-induced seizures (0.5 h, value (95% CI)), this compound had an ED50 (MES) of 13.1 mg/kg. Also, in the series on MES-induced seizures (Kunming, mouse, in vivo, 0.5 h), the “PI (TD50/ED50) MES” value is reported as 36.3.
